Each structure is given as a SMILES string. Where only a bound is given, the exact number is not on record here.

In general, IC50 refers to the concentration that gives 50% inhibition.

Experiment [1] addresses Adenosine A2a (ADORA2A) receptor (Homo sapiens (Human), UniProt P29274). Description: ADORA2A Receptor Binding Assay. As to conditions: radioligand binding, membrane stock. The procedure:
ADORA1A and ADORA2A Receptor Binding Assay
2 μL of each compound (test compounds, high control compound, low control compound) was transferred into individual wells of an assay plate. Also to each individual well, 98 μL of Adenosine A1a membrane stock (for ADORA1A Receptor Binding Assay) or Adenosine A2a membrane stock (for ADORA2A Receptor Binding Assay) was dispensed, followed by 100 μL of radio-labeled ligand. Plates were then sealed, and incubated at room temperature for 1 hour (for ADORA1A Receptor Binding Assay) or 2 hours (for ADORA2A Receptor Binding Assay). Unifilter-96 GF/C filter plates were pre-soaked with 50 μL of 0.3% PEI per well for at least 30 min at room temperature. When binding assays were completed, reaction mixtures were filtered through GF/C plates using a Perkin Elmer Filtermate Harvester, and then each plate was washed 4× with cold wash buffer. Filter plates were then dried for 1 hour at 50° C. After drying, the bottom of the filter plate wells was sealed using Perkin Elmer Unifilter-96 backing seal tape. 50 μL of Perkin Elmer Microscint 20 cocktail was then added, and the top of the filter plate was then sealed using Perkin Elmer TopSeal-A sealing film. ^3H trapped on the filter was counted using a Perkin Elmer MicroBeta2 Reader. Data analysis was performed using GraphPad Prism 5 software, and the “Inhibition [% Control]” was calculated using the following equation: % Inh=(1−Background subtracted Assay value/Background subtracted HC value)*100.

Experiment [2] concerns the target Adenosine A2B (ADORA2B) receptor (Homo sapiens (Human), UniProt P29275). Put plainly: ADORA2B Receptor Binding Assay. Conditions: radioligand binding, membrane stock. Here is the method: ADORA2B Receptor Binding Assay
100 μL of Adenosine A2B membrane stock was dispensed into individual wells of an assay plate. 1 μL of each compound (test compounds, high control compound, low control compound) was then transferred into individual wells, followed by 100 μL of radio-labeled ligand. Plates were then sealed, and incubated at room temperature for 1 hour. Unifilter-96 GF/C filter plates were pre-soaked with 50 μL of 0.5% BSA per well for at least 30 min at room temperature. When binding assays were completed, reaction mixtures were filtered through GF/C plates using a Perkin Elmer Filtermate Harvester, and then each plate was washed 4× with cold wash buffer. Filter plates were then dried for 1 hour at 50° C. After drying, the bottom of the filter plate wells was sealed using Perkin Elmer Unifilter-96 backing seal tape. 50 μL of Perkin Elmer Microscint 20 cocktail was then added, and the top of the filter plate was then sealed using Perkin Elmer TopSeal-A sealing film. ^3H trapped on the filter was counted using a Perkin Elmer MicroBeta2 Reader. Data analysis was performed using GraphPad Prism 5 software, and the “Inhibition[% Control]” was calculated using the following equation: % Inh=(1−Background subtracted Assay value/Background subtracted HC value)*100.

Adenosine A2B (ADORA2B) receptor, sequence (P29275 whole entry): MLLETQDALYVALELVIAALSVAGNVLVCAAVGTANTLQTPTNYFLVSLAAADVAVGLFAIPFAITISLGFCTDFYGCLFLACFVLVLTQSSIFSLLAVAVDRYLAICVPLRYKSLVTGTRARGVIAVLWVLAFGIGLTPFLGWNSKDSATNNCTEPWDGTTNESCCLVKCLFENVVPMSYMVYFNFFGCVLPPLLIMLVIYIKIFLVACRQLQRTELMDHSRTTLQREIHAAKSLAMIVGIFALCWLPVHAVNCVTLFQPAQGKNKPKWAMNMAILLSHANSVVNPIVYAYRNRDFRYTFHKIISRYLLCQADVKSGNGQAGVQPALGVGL
Adenosine A2a (ADORA2A) receptor, sequence (P29274 whole entry): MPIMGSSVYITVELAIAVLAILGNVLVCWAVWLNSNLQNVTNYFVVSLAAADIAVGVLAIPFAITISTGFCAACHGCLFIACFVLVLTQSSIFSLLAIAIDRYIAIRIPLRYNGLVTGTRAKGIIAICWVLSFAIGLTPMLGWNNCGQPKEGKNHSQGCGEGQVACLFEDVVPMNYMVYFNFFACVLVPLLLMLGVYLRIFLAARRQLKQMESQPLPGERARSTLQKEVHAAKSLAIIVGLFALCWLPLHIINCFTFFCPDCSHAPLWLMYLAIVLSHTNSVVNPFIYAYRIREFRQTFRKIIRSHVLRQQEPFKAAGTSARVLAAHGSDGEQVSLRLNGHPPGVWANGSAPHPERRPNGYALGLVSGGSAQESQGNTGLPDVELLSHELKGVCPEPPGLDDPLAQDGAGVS

With `Cc1nc2cc(NC(=O)C3CC3)nc(-c3cccc(C#N)c3)n2n1` [Compound 53, N-[5-(3-cyanophenyl)-2-methyl-[1,2,4]triazolo[1,5-c]pyrimidin-7-yl]cyclopropanecarboxamide], the IC50 in experiment [1] was 10 to 100 nM; in experiment [2], 100 to 1000 nM.
The matching figures for `Cc1ccc(-c2nc(NC(=O)C3CC3)cc3nc(C4CCOCC4)nn23)o1` [Compound 54, N-[5-(5-methylfuran-2-yl)-2-(oxan-4-yl)-[1,2,4]triazolo[1,5-c]pyrimidin-7-yl]cyclopropanecarboxamide]: less than 10 nM and 100 to 1000 nM.
As for `Cc1nc2cc(NC(=O)C3CC3)nc(-c3ccc(C(C)C)o3)n2n1` [Compound 55, N-[2-methyl-5-(5-propan-2-ylfuran-2-yl)-[1,2,4]triazolo[1,5-c]pyrimidin-7-yl]cyclopropanecarboxamide], the IC50 in experiment [1] is less than 10 nM; in experiment [2] it was 100 to 1000 nM.
Taken in the same sequence, the figures for `Cc1nc2cc(NC(=O)C3CC3)nc(-c3ccc(C#N)cc3)n2n1` [Compound 56, N-[5-(4-cyanophenyl)-2-methyl-[1,2,4]triazolo[1,5-c]pyrimidin-7-yl]cyclopropanecarboxamide] were 100 to 1000 nM and more than 1000 nM.
Turning to `Cc1cncc(-c2nc(N)c(Cl)c3nc(C)nn23)c1` [Compound 57, 8-chloro-2-methyl-5-(5-methylpyridin-3-yl)-[1,2,4]triazolo[1,5-c]pyrimidin-7-amine], the IC50 in experiment [1] and in experiment [2] was more than 1000 nM in each case.
For the compound `CC(C)c1nc2cc(NC(=O)C3CC3)nc(-c3ccco3)n2n1` [Compound 58, N-[5-(furan-2-yl)-2-propan-2-yl-[1,2,4]triazolo[1,5-c]pyrimidin-7-yl]cyclopropanecarboxamide], the IC50 in experiment [1] and in experiment [2] was less than 10 nM in each case.
Consider `CC(=O)Nc1cc2nc(C(F)(F)F)nn2c(-c2ccco2)n1` [Compound 59, N-[5-(furan-2-yl)-2-(trifluoromethyl)-[1,2,4]triazolo[1,5-c]pyrimidin-7-yl]acetamide], for which the IC50 in experiment [1] is less than 10 nM; in experiment [2], 10 to 100 nM.
With `Cc1nc2cc(NC(=O)C3COC3)nc(-c3ccc(C)o3)n2n1` [Compound 60, N-[2-methyl-5-(5-methylfuran-2-yl)-[1,2,4]triazolo[1,5-c]pyrimidin-7-yl]oxetane-3-carboxamide], the IC50 in experiment [1] was less than 10 nM; in experiment [2], 10 to 100 nM.
The matching figures for `CC(=O)Nc1cc2nc(C3CC3)nn2c(-c2ccc(C)o2)n1` [Compound 61, N-[2-cyclopropyl-5-(5-methylfuran-2-yl)-[1,2,4]triazolo[1,5-c]pyrimidin-7-yl]acetamide]: less than 10 nM and 10 to 100 nM.
Taken in the same sequence, the figures for `Cc1ccc(-c2nc(NC(=O)C3CC3)cc3nc(C4CC4)nn23)o1` [Compound 62, N-[2-cyclopropyl-5-(5-methylfuran-2-yl)-[1,2,4]triazolo[1,5-c]pyrimidin-7-yl]cyclopropanecarboxamide] were less than 10 nM and 10 to 100 nM.
With `CC(=O)Nc1cc2nc(C3CCC3)nn2c(-c2ccc(C)o2)n1` [Compound 63, N-[2-cyclobutyl-5-(5-methylfuran-2-yl)-[1,2,4]triazolo[1,5-c]pyrimidin-7-yl]acetamide], the IC50 is less than 10 nM in experiment [1] and 10 to 100 nM in experiment [2].
The matching figures for `Cc1ccc(-c2nc(NC(=O)C3CC3)cc3nc(C4CCC4)nn23)o1` [Compound 64, N-[2-cyclobutyl-5-(5-methylfuran-2-yl)-[1,2,4]triazolo[1,5-c]pyrimidin-7-yl]cyclopropanecarboxamide]: less than 10 nM and 10 to 100 nM.
Taken in the same sequence, the figures for `CC(=O)Nc1cc2nc(C3CCCC3)nn2c(-c2ccc(C)o2)n1` [Compound 65, N-[2-cyclopentyl-5-(5-methylfuran-2-yl)-[1,2,4]triazolo[1,5-c]pyrimidin-7-yl]acetamide] were less than 10 nM and 10 to 100 nM.
Taken in the same sequence, the figures for `Cc1ccc(-c2nc(NC(=O)C3CC3)cc3nc(C4CCCC4)nn23)o1` [Compound 66, N-[2-cyclopentyl-5-(5-methylfuran-2-yl)-[1,2,4]triazolo[1,5-c]pyrimidin-7-yl]cyclopropanecarboxamide] were less than 10 nM and 10 to 100 nM.
For `Cc1ccc(-c2nc(NC(=O)C3CC3)cc3nc(-c4ccco4)nn23)o1` [Compound 67, N-[2-(furan-2-yl)-5-(5-methylfuran-2-yl)-[1,2,4]triazolo[1,5-c]pyrimidin-7-yl]cyclopropanecarboxamide], the IC50 was less than 10 nM in experiment [1] and 10 to 100 nM in experiment [2].
The matching figures for `O=C(Nc1cc2nc(C(F)(F)F)nn2c(-c2ccco2)n1)C1CC1` [Compound 68, N-[5-(furan-2-yl)-2-(trifluoromethyl)-[1,2,4]triazolo[1,5-c]pyrimidin-7-yl]cyclopropanecarboxamide]: less than 10 nM and less than 10 nM.
Taken in the same sequence, the figures for `Cc1nc2cc(NC(=O)C3CC3)nc(-c3ccc(C(F)(F)F)o3)n2n1` [Compound 69, N-[2-methyl-5-[5-(trifluoromethyl)furan-2-yl]-[1,2,4]triazolo[1,5-c]pyrimidin-7-yl]cyclopropanecarboxamide] were less than 10 nM and 10 to 100 nM.
Taken in the same sequence, the figures for `Cc1nc2cc(NC(=O)C3CC3)nc(-c3cnn(C)c3)n2n1` [Compound 70, N-[2-methyl-5-(1-methylpyrazol-4-yl)-[1,2,4]triazolo[1,5-c]pyrimidin-7-yl]cyclopropanecarboxamide] were 100 to 1000 nM and more than 1000 nM.
Regarding `CC(=O)Nc1cc2nc(C)nn2c(-c2cnn(C)c2)n1` [Compound 71, N-[2-methyl-5-(1-methylpyrazol-4-yl)-[1,2,4]triazolo[1,5-c]pyrimidin-7-yl]acetamide], the IC50 in experiment [1] and in experiment [2] was more than 1000 nM each time.
`CC(=O)Nc1cc2nc(C)nn2c(-c2ccoc2)n1` [Compound 72, N-[5-(furan-3-yl)-2-methyl-[1,2,4]triazolo[1,5-c]pyrimidin-7-yl]acetamide]: the values for the IC50 in experiment [1] and in experiment [2] were 100 to 1000 nM and more than 1000 nM, respectively.
On to `Cc1nc2cc(NC(=O)C3CC3)nc(-c3ccoc3)n2n1` [Compound 73, N-[5-(furan-3-yl)-2-methyl-[1,2,4]triazolo[1,5-c]pyrimidin-7-yl]cyclopropanecarboxamide], for which the IC50 was in the range of 10 to 100 nM in experiment [1] and 100 to 1000 nM in experiment [2].
Taken in the same sequence, the figures for `Cc1nc2c(Cl)c(N)nc(-c3ccccn3)n2n1` [Compound 74, 8-chloro-2-methyl-5-pyridin-2-yl-[1,2,4]triazolo[1,5-c]pyrimidin-7-amine] were 10 to 100 nM and more than 1000 nM.
For the compound `Cc1cc2c(nc(-c3ccc(C)o3)n3nc(C(C)C)nc23)[nH]1` [Compound 75, 11-methyl-7-(5-methylfuran-2-yl)-4-propan-2-yl-3,5,6,8,10-pentazatricyclo[7.3.0.0^2,6]dodeca-1(9),2,4,7,11-pentaene], the IC50 in experiment [1] is less than 10 nM; in experiment [2] it was 10 to 100 nM.
Taken in the same sequence, the figures for `Cc1cccc(-c2nc(N)c(Cl)c3nc(C)nn23)n1` [Compound 76, 8-chloro-2-methyl-5-(6-methylpyridin-2-yl)-[1,2,4]triazolo[1,5-c]pyrimidin-7-amine] were 10 to 100 nM and more than 1000 nM.
The matching figures for `Cc1nc2c(Cl)c(N)nc(-c3ccc(Cl)cc3)n2n1` [Compound 77, 8-chloro-5-(4-chlorophenyl)-2-methyl-[1,2,4]triazolo[1,5-c]pyrimidin-7-amine]: 10 to 100 nM and 10 to 100 nM.
The matching figures for `Cc1nc2c(Cl)c(N)nc(-c3cccc(Cl)c3)n2n1` [Compound 78, 8-chloro-5-(3-chlorophenyl)-2-methyl-[1,2,4]triazolo[1,5-c]pyrimidin-7-amine]: less than 10 nM and 10 to 100 nM.
With `Cc1nc2c(Cl)c(N)nc(-c3ccncc3)n2n1` [Compound 79, 8-chloro-2-methyl-5-pyridin-4-yl-[1,2,4]triazolo[1,5-c]pyrimidin-7-amine], the IC50 in experiment [1] lay within 10 to 100 nM; in experiment [2] it was 100 to 1000 nM.
The matching figures for `Cc1nc2c(Cl)c(N)nc(-c3ccc(F)cc3)n2n1` [Compound 80, 8-chloro-5-(4-fluorophenyl)-2-methyl-[1,2,4]triazolo[1,5-c]pyrimidin-7-amine]: 10 to 100 nM and 100 to 1000 nM.

The values are drawn from patent US11718622B2, “Heterocyclic adenosine receptor antagonists” (Exelixis, Inc., priority 2020, dated 2023).
